Test results: patent publication US20160015701A1, “Methods of Treating Acute Kidney Injury” (ABBIVE INC., priority 2013, published 2016)
Read-outs that look alike come from different tables or passages of the source.

Legend:
[1] = system: unilateral ischemic renal injury; assay: unilateral ischemia/reperfusion (I/R) injury protocol, renal weight two weeks post ischemia; type: in vivo, CD-1 mice
Experimental: (§1) All experiments were performed using male 30-45 gram CD-1 mice, obtained from Charles River Laboratories, Wilmington, Mass. They were housed under routine vivarium conditions with free food and water access. Surgeries were conducted under deep pentobarbital anesthesia (40-50 mg/Kg IP). Post surgical analgesia was provided with buprenorphine (0.1 mg/Kg IP) at the completion of surgery. All procedures were approved by the institution's IACUC, in accordance with NIH guidelines.
In this example, ET-1 and ETA/ETB receptor expression were quantified following ischemic renal injury, and ET-1 gene chromatin remodeling and RNA polymerase II (Pol II) binding were evaluated. Ten mice were subjected to a midline laparotomy, and the left renal pedicles were exposed and occluded ×30 min using atraumatic microvascular clamps. Uniform ischemia was confirmed by the development of total kidney cyanosis (indicating hypoxia). Body temperature was monitored with an intra-abdominal thermometer and maintained at 37° C. with an external heating source. At the completion of the ischemic period, the vascular clamp was removed, and uniform reperfusion was confirmed by loss of kidney cyanosis. The abdominal incision was then sutured in two layers using 3-0 chromic suture. The mice were then allowed to recover from anesthesia. Ten additional mice, subjected to the same surgical procedure, but not to renal pedicle occlusion, served as sham-operated controls.
This example studied whether atrasentan treatment, during pre- and post-ischemic period, confers renal protection. Eighteen mice were subjected to a unilateral ischemia/reperfusion (I/R) protocol as described in Example 1. […] Atrasentan was administered in the drinking water (25 μg/mL; designed to equate with a dose of ˜5 mg/Kg/day). Atrasentan dosing was started one day before surgery, and continued throughout the remainder of the experiment. Fresh atrasentan was provided ˜2-3× per week for two weeks. The remaining nine mice received only free food and water access, serving as controls.
The degree of post-ischemic loss of renal mass was assessed by comparing the weights of kidneys from sham operated mice, control post-ischemic mice, and post ischemic mice that had received atrasentan treatment. Finally, frontal sections of post-ischemic kidneys were taken from five control mice and five atrasentan-treated mice, fixed in 10% buffered formalin, and used for subsequent histochemical analyses.
This example studies whether atrasentan treatment, restricted to the post-ischemic period, confers renal protection. This experiment was designed to help resolve the issue of when atrasentan was inducing its protective effect. To this end, the same protocol described in Example 2 was repeated, but atrasentan administration was commenced 24 hours after the induction of ischemic damage). At the end of two weeks, the mice were re-anesthetized and the left and right kidneys were weighed. The degree of post ischemic renal weight reduction (the primary endpoint of the above described experiment) was determined. […]
This example studies the potential effects of atrasentan on renal growth independent of ischemic injury. To ascertain whether atrasentan treatment might impact renal growth or size independent of an effect on renal ischemia/post ischemic injury, renal weights of the contralateral (non ischemic) kidneys from the Example 2 were assessed and compared to ischemic kidneys with and without treatment with atrasentan. […]

ETB receptor = settings: read-out: K1 of ET-1/ETB binding affinity; cited from earlier work
[2] = system: proximal tubule (HK-2) cells
Experimental: After eighteen hours of incubation, lethal cell injury was assessed by % LDH release.

[3] = system: bilateral ischemic renal injury; assay: bilateral ischemic renal injury, severity at 24 hours post ischemia; type: in vivo, CD-1 mice; settings: 22.5 min or 25 min bilateral ischemia
Experimental: as §1
This example studies whether atrasentan pre-treatment protects against the acute ischemic injury phase. More particularly, the possibility that atrasentan might mitigate the acute injury phase, and thus, cause a subsequent preservation of renal mass, was explored by subjecting mice to either 22.5 minutes or 25 minutes of bilateral ischemic renal injury in the presence or absence of atrasentan pre-treatment for 24 hours before and for 24 hours after the induction of renal ischemia. […]
The severity of injury was assessed at 24 hours post ischemia by BUN and plasma creatinine concentrations. […] As a second marker of renal injury, renal cortical NGAL mRNA levels were also assessed. Measurement of NGAL mRNA represents a more sensitive biomarker of kidney injury than BUN and Plasma Creatinine measured in FIG. 8 and was measured to investigate the effect of atrasentan on the induction phase of ischemic injury.

post ischemic kidneys = assay: renal histology (H and E injury score, KI-67 staining) of two week post ischemic kidneys; type: in vivo, CD-1 mice; settings: pre+post atrasentan
Experimental: Calculations and Statistics: All values are presented as means±1 SEM. Statistical comparisons were performed by unpaired Student's t test. The mRNA data were generated by competitive RT-PCR, with the results for any given message being expressed as a ratio to the simultaneously determined GAPDH product, used as a housekeeping gene. ChIP data, generated with real time PCR (qPCR) are presented as ng/mg total applied chromatin. The severity of histologic injury, as determined by studying H and E stained kidney sections, was assessed by blinded scoring of slides of 2 week post ischemic kidneys from 5 Atrasentan treated (24 hrs pre-ischemia, and 2 weeks post-ischemia) mice, and from 5 non Atrasentan treated post ischemic controls. […]
This example examined renal histology on kidneys from five control mice and five atrasentan-treated mice from Example 2. […] In addition, renal tubular cell proliferation was assessed by immunohistochemical staining for KI-67, a nuclear protein marker of all active cell cycle phases (G1, S, G2, mitosis; but not Go). (Scholzen T, et al., The Ki-67 protein: from the known and the unknown. J Cell Physiol. 182: 311-322, 2000.) The percent of KI-67 cells was determined on whole kidney sections, captured with ScanScope AT (Aperio, Vista, Calif.), and then analyzed with Nuclear Algorithm Spectrum software (version 11.1.1.764; Aperio).

Compound | effect on renal parameters measured ([1]; BQ-788 administered both pre- and post-ischemia) | post ischemic kidney weight ([1]; BQ-788 subcutaneously each day from 1 day before surgery, two weeks post ischemia, control ischemia 0.23 grams) [grams] | Ki (ETB receptor) [nM] | LDH release ([2]; CAD (antimycin A/Ca ionophore/2-deoxyglucose) + 5 μg atrasentan, 18 hours, CAD alone 22.8±0.2%) [%] | LDH release ([2]; human, 18 h, 5 μg/mL) [%] | severity of AKI by BUN and plasma creatinine concentrations ([3]; atrasentan 24 hours before and 24 hours after, assessed 24 hours post ischemia) | renal cortical NGAL mRNA levels ([3]; atrasentan 24 hours before and after, 24 hours post ischemia) | % KI-67 nuclear positivity (post ischemic kidneys; two week post ischemic kidney, control ischemia 11.4±0.8%, normal kidneys 2.4±0.6%) [%] | histologic injury score (semiquantitative 1+ to 4+, least to most severe) (post ischemic kidneys; two weeks post ischemia, control ischemia 3.4±0.3, p<0.01, mean±SEM) | post ischemic loss of renal mass (renal weight) ([1]; atrasentan commenced 24 hours after induction of ischemic damage, two weeks) | post ischemic kidney weight (renal mass) ([1]; atrasentan in drinking water ~5 mg/Kg/day, started one day before 30 min unilateral ischemia and continued two weeks post ischemia, vs normal kidneys) | contralateral (non ischemic) kidney weight, hypertrophic response ([1]; pre+post atrasentan, two weeks, drug vs. no-drug groups)
CCCC[C@@H](NC(=O)[C@@H](Cc1cn(C(=O)OC)c2ccccc12)NC(=O)[C@H](CC(C)(C)C)NC(=O)N1[C@H](C)CCC[C@@H]1C)C(=O)[O-].[Na+] [BQ-788, N-cis-2,6-dimethylpiperidinocarbonyl-L-gamma-methylleucyl-D-1-methoxycarbonyltryptophanyl-D-norleucine] | no effect on any of the renal parameters measured | 0.24 | 100 | – | – | – | – | – | – | – | – | –
CCCCN(CCCC)C(=O)CN1C[C@H](c2ccc3c(c2)OCO3)[C@@H](C(=O)O)[C@@H]1c1ccc(OC)cc1 [atrasentan, (2R,3R,4S)-4-(1,3-benzodioxol-5-yl)-1-[2-(dibutylamino)-2-oxoethyl]-2-(4-methoxyphenyl)pyrrolidine-3-carboxylic acid] | – | – | – | 23.2±0.3 | 9.0±0.1 | failed to mitigate the severity of AKI | in neither instance did atrasentan decrease these NGAL mRNA increases | 10.8±1.2 | 1.7±0.4 | completely blocked this loss of renal mass | did not significantly differ from that of normal kidneys | no effect on this hypertrophic response
